Measurements published in US20240294508A1, “RIP1 MODULATORS INCLUDING AZETIDINE CYCLIC UREAS, PREPARATIONS, AND USES THEREOF” (SIRONAX LTD., priority 2021, published 2024).
pEC50: −log10 of the molar value.

System: HT-29 cells
Assay: HT29 cells 0FBS assay in vitro: TNF-α/SMAC mimetic/zVAD-FMK induced necroptosis, CellTiter-Glo cell viability (RIP1 inhibitory activity)
Type: cell-based
Details: Homo sapiens, FBS free medium, TNF-α (10 ng/ml) + SMAC mimetic (6 uM) + zVAD-FMK (10 μM), 20 hours, geometric mean EC50
Procedure, shortened: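 Luminescent ATP read-out (CellTiter-Glo) gave viability of HT-29 cells after 20 h at 37° C in serum-free medium containing compound and a necroptosis cocktail of 10 ng/ml TNF-α, 6 uM SMAC mimetic and 10 μM zVAD-FMK. EC50s are geometric means of 10-point curves run in duplicate.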

Q: How did the pEC50 turn out when Cn1ncc(Cl)c1-c1cc(OC2CN(C(=O)N3N=CC[C@H]3c3cc(F)cc(C#N)c3)C2)c(F)cn1 [Compound 6, (S)-3-(1-(3-((2-(4-chloro-1-methyl-1H-pyrazol-5-yl)-5-fluoropyridin-4-yl)oxy)azetidine-1-carbonyl)-4,5-dihydro-1H-pyrazol-5-yl)-5-fluorobenzonitrile] was run?
A: 7.00 to 10.00

Q: Cc1cc(F)cc([C@H]2CC=NN2C(=O)N2CC(Oc3cc(-n4nc(C)c(C(N)=O)c4C)ncc3F)C2)c1 [Compound 136, (R)-1-(5-fluoro-4-((1-(5-(3-fluoro-5-methylphenyl)-4,5-dihydro-1H-pyrazole-1-carbonyl)azetidin-3-yl)oxy)pyridin-2-yl)-3,5-dimethyl-1H-pyrazole-4-carboxamide] was tested. Which pEC50 did it give?
A: 6.00 to 7.00

Q: Cc1cnn(C)c1-c1nc(OC2CN(C(=O)N3N=CCC3c3cc(F)cc(F)c3)C2)c(F)cc1F (stereo not drawn) [Compound 158, (5-(3,5-difluorophenyl)-4,5-dihydro-1H-pyrazol-1-yl)(3-((6-(1,4-dimethyl-1H-pyrazol-5-yl)-3,5-difluoropyridin-2-yl)oxy)azetidin-1-yl)methanone] was tested. Which pEC50 did it give?
A: 7.00 to 10.00

Q: Cc1cnn(C)c1-c1ncc(F)c(OC2CN(C(=O)N3N=CC[C@H]3c3cncc(C#N)c3)C2)n1 [Compound 33, (S)-5-(1-(3-((2-(1,4-dimethyl-1H-pyrazol-5-yl)-5-fluoropyrimidin-4-yl)oxy)azetidine-1-carbonyl)-4,5-dihydro-1H-pyrazol-5-yl)nicotinonitrile] was tested. Which pEC50 did it give?
A: 7.00 to 10.00

Q: How did the pEC50 turn out when Cc1cnc(C2CC=NN2C(=O)N2CC(Oc3nc(-c4ccnn4C)c(F)cc3F)C2)s1 (stereo not drawn) [Compound 139, (3-((3,5-difluoro-6-(1-methyl-1H-pyrazol-5-yl)pyridin-2-yl)oxy)azetidin-1-yl)(5-(5-methylthiazol-2-yl)-4,5-dihydro-1H-pyrazol-1-yl)methanone] was run?
A: 7.00 to 10.00

Q: With Cc1cc(F)cc(C2CC=NN2C(=O)N2CC(Oc3cc(-n4nc(C)c(C(N)=O)c4C)ncc3F)C2)c1 (stereo not drawn) [Compound 118, 1-(5-fluoro-4-((1-(5-(3-fluoro-5-methylphenyl)-4,5-dihydro-1H-pyrazole-1-carbonyl)azetidin-3-yl)oxy)pyridin-2-yl)-3,5-dimethyl-1H-pyrazole-4-carboxamide] as the compound, how does the pEC50 read?
A: 7.00 to 10.00

Q: With Cc1cnn(C)c1-c1cc(OC2CN(C(=O)N3N=CC[C@H]3c3cncc(C#N)c3)C2)c(F)cn1 [Compound 42, (S)-5-(1-(3-((2-(1,4-dimethyl-1H-pyrazol-5-yl)-5-fluoropyridin-4-yl)oxy)azetidine-1-carbonyl)-4,5-dihydro-1H-pyrazol-5-yl)nicotinonitrile] as the compound, how does the pEC50 read?
A: 7.00 to 10.00

Q: How did the pEC50 turn out when Cc1nn(-c2cc(OC3CN(C(=O)N4N=CC[C@@H]4c4cc(F)cc(Cl)c4)C3)c(F)cn2)c(C)c1C(=O)O [Compound 141, (R)-1-(4-((1-(5-(3-chloro-5-fluorophenyl)-4,5-dihydro-1H-pyrazole-1-carbonyl)azetidin-3-yl)oxy)-5-fluoropyridin-2-yl)-3,5-dimethyl-1H-pyrazole-4-carboxylic acid] was run?
A: 6.00 to 7.00

Q: With Cc1cnn(C)c1-c1nc(OC2CN(C(=O)N3N=CC[C@H]3c3cc(F)cc(F)c3)C2)sc1Cl [Compound 149, (S)-(3-((5-chloro-4-(1,4-dimethyl-1H-pyrazol-5-yl)thiazol-2-yl)oxy)azetidin-1-yl)(5-(3,5-difluorophenyl)-4,5-dihydro-1H-pyrazol-1-yl)methanone] as the compound, how does the pEC50 read?
A: 7.00 to 10.00

Q: How did the pEC50 turn out when Cc1nc(C(N)=O)c(C)n1-c1cc(OC2CN(C(=O)N3N=CC[C@H]3c3cncc(F)c3)C2)c(F)cn1 [Compound 69, (S)-1-(5-fluoro-4-((1-(5-(5-fluoropyridin-3-yl)-4,5-dihydro-1H-pyrazole-1-carbonyl)azetidin-3-yl)oxy)pyridin-2-yl)-2,5-dimethyl-1H-imidazole-4-carboxamide] was run?
A: 6.00 to 7.00

Q: With Cn1ncc(F)c1-c1cc(OC2CN(C(=O)N3N=CC[C@H]3c3cncc(F)c3)C2)c(F)cn1 [Compound 45, (S)-(3-((5-fluoro-2-(4-fluoro-1-methyl-1H-pyrazol-5-yl)pyridin-4-yl)oxy)azetidin-1-yl)(5-(5-fluoropyridin-3-yl)-4,5-dihydro-1H-pyrazol-1-yl) methanone] as the compound, how does the pEC50 read?
A: 7.00 to 10.00

Q: With Cc1nn(CC2CC2)c(C)c1-c1cc(OC2CN(C(=O)N3N=CC[C@H]3c3cc(F)cc(C#N)c3)C2)c(F)cn1 [Compound 57, (S)-3-(1-(3-((2-(1-(cyclopropylmethyl)-3,5-dimethyl-1H-pyrazol-4-yl)-5-fluoropyridin-4-yl)oxy)azetidine-1-carbonyl)-4,5-dihydro-1H-pyrazol-5-yl)-5-fluorobenzonitrile] as the compound, how does the pEC50 read?
A: 7.00 to 10.00

Q: With Cc1nn(-c2cc(OC3CN(C(=O)N4N=CC[C@H]4c4cc(F)cc(F)c4F)C3)c(F)cn2)c(C)c1S(N)(=O)=O [Compound 124, (S)-1-(5-fluoro-4-((1-(5-(2,3,5-trifluorophenyl)-4,5-dihydro-1H-pyrazole-1-carbonyl)azetidin-3-yl)oxy)pyridin-2-yl)-3,5-dimethyl-1H-pyrazole-4-sulfonamide] as the compound, how does the pEC50 read?
A: 7.00 to 10.00

Q: How did the pEC50 turn out when Cc1nn(-c2cc(OC3CN(C(=O)N4N=CC[C@@H]4c4cccc(F)c4)C3)c(F)cn2)c(C)c1C(N)=O [Compound 98, (R)-1-(5-fluoro-4-((1-(5-(3-fluorophenyl)-4,5-dihydro-1H-pyrazole-1-carbonyl)azetidin-3-yl)oxy)pyridin-2-yl)-3,5-dimethyl-1H-pyrazole-4-carb oxamide] was run?
A: 5.00 to 6.00

Q: Cc1c(C#N)nn(C)c1-c1cc(OC2CN(C(=O)N3N=CC[C@H]3c3cncc(F)c3)C2)c(F)cn1 [Compound 65, (S)-5-(5-fluoro-4-((1-(5-(5-fluoropyridin-3-yl)-4,5-dihydro-1H-pyrazole-1-carbonyl)azetidin-3-yl)oxy)pyridin-2-yl)-1,4-dimethyl-1H-pyrazole-3-carbonitrile] was tested. Which pEC50 did it give?
A: 7.00 to 10.00

Q: Cn1ncc(-c2cc(OC3CN(C(=O)N4N=CC[C@H]4c4cc(F)cc(C#N)c4)C3)c(F)cn2)n1 [Compound 15, (S)-3-fluoro-5-(1-(3-((5-fluoro-2-(2-methyl-2H-1,2,3-triazol-4-yl)pyridin-4-yl)oxy)azetidine-1-carbonyl)-4,5-dihydro-1H-pyrazol-5-yl)benzonitrile] was tested. Which pEC50 did it give?
A: 6.00 to 7.00

Q: Cc1nc(C2CC=NN2C(=O)N2CC(Oc3cc(-c4c(C)cnn4C)ncc3F)C2)c(C)s1 (stereo not drawn) [Compound 128, (3-((2-(1,4-dimethyl-1H-pyrazol-5-yl)-5-fluoropyridin-4-yl)oxy)azetidin-1-yl)(5-(2,5-dimethylthiazol-4-yl)-4,5-dihydro-1H-pyrazol-1-yl)methanone] was tested. Which pEC50 did it give?
A: 6.00 to 7.00

Q: Cc1c(N)nn(C)c1-c1cc(OC2CN(C(=O)N3N=CCC3c3cc(F)cc(F)c3F)C2)c(F)cn1 (stereo not drawn) [Compound 115, (3-((2-(3-amino-1,4-dimethyl-1H-pyrazol-5-yl)-5-fluoropyridin-4-yl)oxy)azetidin-1-yl)(5-(2,3,5-trifluorophenyl)-4,5-dihydro-1H-pyrazol-1-yl) methanone] was tested. Which pEC50 did it give?
A: 7.00 to 10.00

Q: COc1ncccc1-c1cc(OC2CN(C(=O)N3N=CC[C@H]3c3cc(F)cc(F)c3)C2)c(F)cn1 [Compound 164, (S)-(5-(3,5-difluorophenyl)-4,5-dihydro-1H-pyrazol-1-yl)(3-((5-fluoro-2′-methoxy-[2,3′-bipyridin]-4-yl)oxy)azetidin-1-yl)methanone] was tested. Which pEC50 did it give?
A: 7.00 to 10.00

Q: How did the pEC50 turn out when Cc1ccc(C)n1-c1cc(OC2CN(C(=O)N3N=CC[C@H]3c3cc(F)cc(C#N)c3)C2)c(F)cn1 [Compound 39, (S)-3-(1-(3-((2-(2,5-dimethyl-1H-pyrrol-1-yl)-5-fluoropyridin-4-yl)oxy)azetidine-1-carbonyl)-4,5-dihydro-1H-pyrazol-5-yl)-5-fluorobenzonitrile] was run?
A: 7.00 to 10.00

Q: How did the pEC50 turn out when CNC(=O)c1c(C)nn(-c2cc(OC3CN(C(=O)N4N=CC[C@H]4c4cncc(C#N)c4)C3)c(F)cn2)c1C [Compound 81, (S)-1-(4-((1-(5-(5-cyanopyridin-3-yl)-4,5-dihydro-1H-pyrazole-1-carbonyl)azetidin-3-yl)oxy)-5-fluoropyridin-2-yl)-N,3,5-trimethyl-1H-pyrazole-4-carboxamide] was run?
A: 6.00 to 7.00

Q: How did the pEC50 turn out when Cc1nn(-c2cc(OC3CN(C(=O)N4N=CC[C@H]4c4ccccc4)C3)c(F)cn2)c(C)c1C(=O)NCCO [Compound 74, (S)-1-(5-fluoro-4-((1-(5-phenyl-4,5-dihydro-1H-pyrazole-1-carbonyl)azetidin-3-yl)oxy)pyridin-2-yl)-N-(2-hydroxyethyl)-3,5-dimethyl-1H-pyrazole-4-carboxamide] was run?
A: 7.00 to 10.00

Q: How did the pEC50 turn out when Cn1nccc1-c1cc(OC2CN(C(=O)N3N=CC[C@H]3c3cc(F)cc(C#N)c3)C2)c(F)cn1 [Compound 7, (S)-3-fluoro-5-(1-(3-((5-fluoro-2-(1-methyl-1H-pyrazol-5-yl)pyridin-4-yl)oxy)azetidine-1-carbonyl)-4,5-dihydro-1H-pyrazol-5-yl)benzonitrile] was run?
A: 7.00 to 10.00

Q: How did the pEC50 turn out when Cc1cnc(C2CC=NN2C(=O)N2CC(Oc3nc(-c4c(C)cnn4C)c(F)cc3F)C2)s1 (stereo not drawn) [Compound 129, (3-((6-(1,4-dimethyl-1H-pyrazol-5-yl)-3,5-difluoropyridin-2-yl)oxy)azetidin-1-yl)(5-(5-methylthiazol-2-yl)-4,5-dihydro-1H-pyrazol-1-yl)methanone] was run?
A: 7.00 to 10.00

Q: O=C(N1CC(Oc2cc(-c3ccc[nH]c3=O)ncc2F)C1)N1N=CC[C@H]1c1cc(F)cc(F)c1 [Compound 167, (S)-4-((1-(5-(3,5-difluorophenyl)-4,5-dihydro-1H-pyrazole-1-carbonyl)azetidin-3-yl)oxy)-5-fluoro-[2,3′-bipyridin]-2′(1′H)-one] was tested. Which pEC50 did it give?
A: 7.00 to 10.00

Q: How did the pEC50 turn out when Cn1ncc(Cl)c1-c1ncc(F)c(OC2CN(C(=O)N3N=CC[C@H]3c3cncc(F)c3)C2)n1 [Compound 32, (S)-(3-((2-(4-chloro-1-methyl-1H-pyrazol-5-yl)-5-fluoropyrimidin-4-yl)oxy)azetidin-1-yl)(5-(5-fluoropyridin-3-yl)-4,5-dihydro-1H-pyrazol-1-yl)methanone] was run?
A: 7.00 to 10.00

Q: With Cc1cnn(C)c1-c1cc(OC2CN(C(=O)N3N=CCC3c3cscn3)C2)c(F)cn1 (stereo not drawn) [Compound 95, (3-((2-(1,4-dimethyl-1H-pyrazol-5-yl)-5-fluoropyridin-4-yl)oxy)azetidin-1-yl)(5-(thiazol-4-yl)-4,5-dihydro-1H-pyrazol-1-yl)methanone] as the compound, how does the pEC50 read?
A: 7.00 to 10.00
